Reference: patent US6566394B1, “Salicylamide derivatives” (Mercian Corporation, priority 1999, dated 2003)

Legend:
[1] = test system: collagen-induced arthritis; assay: Collagen-induced arthritis preventing effect; format: in vivo, mouse; conditions: mice, intraperitoneal 2 mg/kg or 4 mg/kg, 3 times/week, 18 times/6 weeks; FIGS. 2(A), 2(B)
Experimental: B) Collagen-induced Arthritis Preventing Effect
Type II collagen was emulsified together with an equivalent volume of Freund's complete adjuvant to prepare 1.5 mg/ml of administration solution. This was intradermally inoculated to the radicular portion of mouse tail in an amount of 0.1 ml (150 μg/mouse) to sensitize the mouse. After 3 weeks, 0.1 ml of type II collagen emulsified in the same operational manner as described was intraperitoneally administered to mouse (150 μg/mouse) to effect booster immunization to induce arthritis.
6 Animals/group of mice were intraperitoneally administered with DHM2EQ and DHM3EQ in a dosage of 2 mg/kg or 4 mg/kg 3 times/week from the day of initial immunization in a ratio of 0.1 ml/10 g of the bodyweight, in total 18 times/6 weeks. The control group (6 animals/group) was administered with 0.5% CMC solution in the same schedule as described above and to provide normal group (4 animals/group) in which no collagen arthritis was induced. The effect of inhibiting collagen-induced arthritis was evaluated by degrees of the flare, swelling and stiffening of anterior limb and posterior limb in scores of 0 to 4 (the maximum score of total for 4 limbs was 16).

NF-κB = NF-κB production inhibitory activity, luciferase reporter gene assay; format: cell-based; conditions: 3×κBTK-Luc reporter, 2 h preincubation, TNF-α (20 ng/ml) for 6 hours; FIGS. 1(A), 1(B)
Experimental: A) NF-κB Production Inhibitory Activity
The NF-κB production inhibitory activity was measured by luciferase reporter gene assay as shown below.
[Luciferase Reporter Gene Assay]
A reporter using luciferase DNA was prepared and the NF-κB production inhibitory activity was measured by use of promoter/reporter assay.
As the plasmid for luciferase assay, 3×κBTK-Luc (endowed by Dr. Junichiro INOUE of The Institute of Medical Science, The University of Tokyo) obtained by coupling luciferase gene derived from lampyrid to 3×κB derived from Igκ gene and HSV-TK promoter was used. Further, for the β-galactosidase assay, a plasmid obtained by coupling β-galactosidase gene to β-actin promoter (endowed by Dr. Junichiro INOUE of The Institute of Medical Science, The University of Tokyo) was used.
2) Transfection and Luciferase Assay
Transfection was performed by a DEAE-dextran method. […]
For 10 μl of the sample, 100 μl of a luminescent substrate solution (Tricine (20 mM), (MgCO3).4Mg(OH)2.5H2O (1.07 mM), MgSO4 (2.67 mM), EDTA (0.1 mM), DTT (33.3 mM), Coenzyme A (270 μM), luciferin (470 μM), and ATP (530 μM)) was added and amount of luminescence was quantitated by use of Lumat LB9501 (Berthold: Bad Wildbad, Germany). Further, the measured amounts were corrected by β-galactosidase assay to obtain the value of luciferase activity. […]

Structure (SMILES)	inhibition of collagen-induced arthritis (score of flare, swelling, stiffening of 4 limbs) [1]	concentration at which NF-κB activity was inhibited (NF-κB)
O=C(NC1=CC(=O)C2OC2C1O)c1ccccc1O (stereo not shown) [DHM2EQ, 5,6-epoxy-4-hydroxy-3-salicyloylamino-2-cyclohexenone]	inhibited collagen-induced arthritis	≥ 1 µg/mL
O=C(NC1=CC(O)C2OC2C1=O)c1ccccc1O (stereo not shown) [DHM3EQ, 5,6-epoxy-4-hydroxy-2-salicyloylamino-2-cyclohexenone]	inhibited collagen-induced arthritis	10 µg/mL
